Measurements: publication PMC5490399, “Glycosaminoglycan Binding and Non-Endocytic Membrane Translocation of Cell-Permeable Octaarginine Monitored by Real-Time In-Cell NMR Spectroscopy” (Pharmaceuticals, 2017)
Non-standard residues stand in square brackets, D forms with d. Residues, ends and D or L forms follow the SMILES beside them. Phe(4-CF3) = N[C@@H](Cc1ccc(C(F)(F)F)cc1)C(=O)O

Experiments:
Type in all cases: cell-based, human
[1] = system: HL60 cells; settings: 100 μM
Method: (§1) One-dimensional in-cell ^19F NMR measurements were carried out at 376.2 MHz by using a JEOL ECA400 NMR spectrometer equipped with a superconducting magnet of 9.4 T. A multinuclear probe (JEOL, NM40T10A/AT) for a 10-mm diameter tube was used. Detailed procedures of the measurement are described elsewhere. Briefly, HL60 cells (the final concentration, 1 × 10^7 cells/mL) were suspended in phosphate-buffered saline (PBS, pH 7.4) at 4 °C and put into a NMR tube. In order to confirm no contribution of energy-dependent endocytosis at 4 °C, the comparative measurement was also performed at 37 °C. To avoid cellular toxicity, the amount of D2O used for the signal lock was decreased to 10%. The sample was gently rotated to prevent the sedimentation of the cells. Field-gradient shimming was applied before the addition of the peptide, to quickly attain the spectral resolution. The measurements started immediately after the thermal equilibrium was attained, 1.5 min after the addition of the ^19F-labeled peptides. The final concentrations of ^19F-R8 and ^19F-T6 were 80 μM and 100 μM, respectively, and these were high enough to observe non-endocytic translocation. […] Cell viability, assessed by the trypan blue staining after the NMR measurement at 4 °C, was 92% ± 1% for ^19F-R8 and 94% ± 1% for ^19F-T6 with respect to the control value, 94% ± 2%. […]

[2] = system: HL60 cells
Method: as §1, with “peptides.” for “peptides. The final concentrations of ^19F-R8 and ^19F-T6 were 80 μM and 100 μM, respectively, and these were high enough to observe non-endocytic translocation.”
Cell peptide concentrations inside and outside were estimated by using the signal intensities of real-time ^19F NMR difference spectra in Figure 2b. Figure A1 illustrates how peptide concentrations were determined from the ^19F NMR spectra. […]
The concentration of these three components can be evaluated from the signal intensities by integrating the respective peak areas. […] Since the total ^19F-R8 concentration is 80 μM, the concentrations of free, bound to GAG, and membrane components are calculated to be […], 9, and 5 μM, respectively.
Figure A1 Illustration of the signal intensity estimation in the ^19F NMR difference spectrum. […] The concentration of these three components can be evaluated from the signal intensities by integrating the respective peak areas (see text).

[3] = system: HL60 cells; test: Steady state 19F NMR after cell fractionation (final distribution); settings: 19F NMR at 4 °C
Method: In the previous sections, we succeeded in comprehensive observation and quantitative analysis of the non-endocytic translocation of ^19F-R8 to the cell inside. To confirm that ^19F-R8 is actually transferred to cytosol across the cell membrane, the final distribution of ^19F-R8 was evaluated by cell fractionation after equilibrium was attained in real-time NMR measurements. Membrane solubilization and centrifugation techniques were combined in accordance with Scheme 1. First, we examined how much of ^19F-R8 was finally bound to cells. In Figure 7a, the ^19F NMR spectra of ^19F-R8 in the supernatant I is compared with total ^19F-R8 as a control at 4 °C. The ^19F NMR signal intensity of the supernatant I corresponds to ^19F-R8 that is still in a free (unbound) state under equilibrium. […] The value is consistent with the result of the real-time in-cell NMR measurement showing about 65 μM (81%) of ^19F-R8 is remaining in a free state after the equilibrium is attained (Figure 6). Next, to confirm that ^19F-R8 is actually bound to HL60 cell, the cell pellet I was solubilized by lysis buffer containing 1% Triton X-100. After the centrifugation, the supernatant II was subject to ^19F NMR measurement at 4 °C. The spectrum is shown in Figure 7b as Lysate, and 13% of the initial ^19F-R8 was detected.
It is considered that three components of ^19F-R8 are contained in the Lysate. They include ^19F-R8 bound to GAG or cell membrane, and ^19F-R8 in cytosol. We separated these components as the supernatant III and the pellet III by centrifuging the Lysate at 100,000× g. Supernatant III consists of ^19F-R8 in cytosol, and pellet III contains ^19F-R8 bound to GAG or cell membrane (referred as Membrane); see Scheme 1. […] It should be noted that the observed chemical shift of NMR signal in this system is too complicated to understand. For example, the cell solubilization exposes ^19F-R8 to numerous molecules derived from cells. Also, the cytosol fraction was obtained by lyophilization of 50 mL lysis buffer A. This leads to the increased concentrations of components (Triton X-100, Tris-HCl, EDTA, NaCl in lysis buffer A) in the final sample to be measured. The condition of the solvent such as ionic strength and pH affects the chemical shift of ^19F-R8 NMR signal. Thus the integral NMR intensity is useful for the steady state NMR spectra because it is basically proportional to the nuclear concentration.
The amount of ^19F-R8 finally delivered to the cytosol was quantified by ^19F NMR under equilibrium in combination with the cell fractionation using membrane solubilization and centrifugation. The cell fractionation procedures are summarized in Scheme 1. After the real-time ^19F NMR measurement, 4 mL of the sample were centrifuged at 1500× g for 5 min at 4 °C. Pellet I was washed twice with 4 mL of PBS and centrifuged again. Then the 8 mL of supernatant I was collected and subject to ^19F NMR measurement at 4 °C, to quantify free ^19F-R8. Next, 4 mL of lysis buffer A (1% Triton X-100, 50 mM Tris-HCl, 50 mM EDTA, 150 mM NaCl, 10% D2O) was added to pellet I, and left for 15 min on ice to complete the cell membrane solubilization. The solution was centrifuged at 15,000× g for 15 min at 4 °C, to separate pellet II and supernatant II. Then, supernatant II was collected and subjected to ^19F NMR measurement at 4 °C (called Lysate). After measurement, 50 mL of lysis buffer A was added and centrifuged at 100,000× g for 3 h at 4 °C. […]

SMILES	Cell viability [1]	interaction with HL60 cells (change of 19F NMR and difference spectrum) [2]	peptide in a free state (supernatant I) under equilibrium ([3]; HL60, after real-time NMR at 4 °C, centrifugation 1500× g, pH 7.4, versus total peptide) [%]	peptide in cytosol fraction (supernatant III) ([3]; Lysate centrifuged at 100,000× g)	peptide in membrane fraction (pellet III) ([3]; Lysate centrifuged at 100,000× g, equilibrium state)	peptide detected in Lysate (supernatant II), of the initial peptide ([3]; pellet I solubilized with 1% Triton X-100 lysis buffer, 15,000× g, pH 7.5) [%]	peptide in DNA and cytoskeleton fraction (pellet II) ([3]; pellet II solubilized)	time at which transfer to cytosol was first observed ([2]; HL60, PBS pH 7.4, 4 °C, 80 μM peptide)	degradation of peptide in the presence of HL60 cells (integral 19F NMR intensity) ([2]; pH 7.4)
CC[C@H](C)[C@H](NC(=O)CNC(=O)[C@H](CO)NC(=O)[C@H](CC(=O)O)NC(=O)[C@H](Cc1ccc(C(F)(F)F)cc1)NC(=O)[C@@H](NC(=O)[C@@H](N)[C@@H](C)O)C(C)C)C(=O)N[C@@H](CO)C(=O)N[C@@H](CCC(=O)O)C(=O)N[C@H](C(=O)N[C@@H](CCCNC(=N)N)C(=O)O)C(C)C [^19F-T6, reference compound] (H-TV[Phe(4-CF3)]DSGISEVR-OH)	94% ± 1%	no interaction occurs							
CC(=O)N[C@@H](Cc1ccc(C(F)(F)F)cc1)C(=O)N[C@@H](CCCNC(=N)N)C(=O)N[C@@H](CCCNC(=N)N)C(=O)N[C@@H](CCCNC(=N)N)C(=O)N[C@@H](CCCNC(=N)N)C(=O)N[C@@H](CCCNC(=N)N)C(=O)N[C@@H](CCCNC(=N)N)C(=O)N[C@@H](CCCNC(=N)N)C(=O)N[C@@H](CCCNC(=N)N)C(N)=O [^19F-R8]			77	observed in the cytosol fraction	within the experimental error	13	not yet detectable	around 5 min	no degradation
